Assays:
Mino cells = assay: Viability measurements, Mino cells; format: cell-based; conditions: Mino, 72 h
Protocol: (§1) Cells were seeded in a transparent-bottom, black 96-well plate, at 15,000 cells per well in sixfold replications. in 90 µl of medium and left to adhere for at least 4 h. The cells were then treated with the respective compound by adding 10 µl of medium–-compound mixture for a final volume of 100 µl in each well. Cell-Titer blue reagent was used to measure viability according to the manufacturer’s instructions. Plate reader measurements were performed on a Tecan Spark Control 10 M fluorescence system.

Ramos cells = assay: Viability measurements, Ramos cells; format: cell-based; conditions: Ramos, 72 h
Protocol: as §1

NQO1 expression = assay: qPCR for NQO1 expression in OCI-AML2 cells after washout; format: cell-based; conditions: OCI-AML2, 250 nM 20 h, from 48 h after treatment
Protocol: Cells were treated with either DMSO or compound at 250 nM, followed by washing out the treated medium after 20 h and reseeding in fresh medium. Cells were then collected at several time points post washout. Total RNA was extracted using RNeasy mini kit (Qiagen, 74104). […] PCR amplification was carried out in Step-One Plus thermocycler (Applied Biosystems). Relative quantification was performed using standard curves. GAPDH was used for normalization.

recombinant Keap1 BTB [1] = target: T1, recombinant Keap1 BTB (Homo sapiens, UniProt Q14145, S172A); assay: DLS of recombinant Keap1 BTB domain; format: biochemical; conditions: 50 μM Keap1 BTB, 50 μM compound, room temperature, over time
T1 construct: The Keap1 BTB domain (48–180) encoding the single substitution S172A was cloned into pET28-bdSumo vector; His–bdSumo (N, cleaved yes); made in house; host or cells: E. coli BL21(DE3)
Protocol: (§2) DLS samples were prepared in the respective protein’s elution buffer, to which 0.01% Tween was added, along with the compound from a DMSO stock to obtain a final DMSO concentration of 2%. Samples were prepared at room temperature and measured at a constant temperature of 25 °C. All samples were passed through 0.1-μm filters and then placed in a clear-bottom black 384-well plate. DLS data were recorded using a DynaproPlate Reader III (Wyatt Technology). Data were processed with the supplied DYNAMICS software.

recombinant Keap1 BTB [2] = assay: DLS of recombinant Keap1 BTB domain; format: biochemical; conditions: 50 µM protein, 50 µM compound
Protocol: as §2

recombinant Keap1 BTB [3] = target: T1, recombinant Keap1 BTB; assay: In vitro crosslinking of Keap1 BTB using GA; format: biochemical; conditions: 50 µM Keap1, 50 µM compound
Protocol: Recombinant Keap1 samples were incubated at room temperature in desired conditions in a buffer containing 25 mM HEPES, 150 mM NaCl pH 8, 1 mM TCEP and 0.01% Tween. At the selected time point, each sample was treated with a 7.5% aqueous solution of GA (prepared fresh) for a final GA concentration of 0.125% and mixed gently. The crosslinking reaction was left at room temperature for 40 min, followed by addition of NuPage gel sample buffer with 20 mM DTT and boiling at 95 °C for 5 min. Lastly, 2–3 μg of each sample was loaded and run on an SDS–PAGE gel. Bands were visualized using a Coomassie blue solution.

U2OS cells = assay: Viability measurements, U2OS cells; format: cell-based
Protocol: as §1

Nrf2 = assay: WB of Nrf2; format: cell-based; conditions: U2OS cells, 20 h compound treatment
[4] = system: RAS GTPase-activating protein-binding protein 1; assay: Colocalization with RAS GTPase-activating protein-binding protein 1 (stress granules); format: cell-based
Keap1 = Keap1 (Homo sapiens, UniProt Q14145); assay: Immunostaining of endogenous Keap1 puncta in U2OS cells; format: cell-based; parameters: We visualized the subcellular localization of endogenous Keap1 following PINCH treatment by immunofluorescence in U2OS cells; endogenous in cells; host or cells: U2OS (ATCC HTB-96); conditions: 250 nM
Protocol: The cells were then blocked with 5% BSA for 60 min at room temperature. Cells were stained with primary antibody, at a concentration of 1:100, for 3 h at room temperature and were then subjected to a secondary antibody conjugated to Alexa Fluor, at a concentration of 1:100–500, for 1 h at room temperature. Lastly, cells were also stained with DAPI for 10 min at room temperature.
Imaging of the cells was performed using a Dragonfly spinning disk confocal system (Andor Technology) connected to an inverted Leica Dmi8 microscope (Leica Microsystems). The signals were detected using a scientific complementary metal–oxide–semiconductor Zyla (Andor) 2,048 × 2,048 camera and the bit depth was 16. At the specified intervals, Z stacks (0.17 µm) of selected cells were acquired with an HC PL APO ×63/1.3 GLYC CORR CS2 objective (506353, Leica Microsystems).
Automatic aggregate segmentation was conducted using the surface module with manual threshold fixed for all images of the same experiment (default 2-pixel smoothing, background subtraction with 0.9-μm largest sphere, morphological split with 0.5-μm seed point diameter). […]
Spots were considered colocalized if their centers were up to 1 μm apart. We manually segmented each cell in 3D using the Surface module and quantified the number percentage and the total puncta volume percentage of colocalized spots for each cell.

T1 sequence (Q14145 48-180 S172A): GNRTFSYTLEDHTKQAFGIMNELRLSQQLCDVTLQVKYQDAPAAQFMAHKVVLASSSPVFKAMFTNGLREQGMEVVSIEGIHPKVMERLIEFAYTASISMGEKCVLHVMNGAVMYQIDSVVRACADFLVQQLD
Keap1, sequence (Q14145 whole entry): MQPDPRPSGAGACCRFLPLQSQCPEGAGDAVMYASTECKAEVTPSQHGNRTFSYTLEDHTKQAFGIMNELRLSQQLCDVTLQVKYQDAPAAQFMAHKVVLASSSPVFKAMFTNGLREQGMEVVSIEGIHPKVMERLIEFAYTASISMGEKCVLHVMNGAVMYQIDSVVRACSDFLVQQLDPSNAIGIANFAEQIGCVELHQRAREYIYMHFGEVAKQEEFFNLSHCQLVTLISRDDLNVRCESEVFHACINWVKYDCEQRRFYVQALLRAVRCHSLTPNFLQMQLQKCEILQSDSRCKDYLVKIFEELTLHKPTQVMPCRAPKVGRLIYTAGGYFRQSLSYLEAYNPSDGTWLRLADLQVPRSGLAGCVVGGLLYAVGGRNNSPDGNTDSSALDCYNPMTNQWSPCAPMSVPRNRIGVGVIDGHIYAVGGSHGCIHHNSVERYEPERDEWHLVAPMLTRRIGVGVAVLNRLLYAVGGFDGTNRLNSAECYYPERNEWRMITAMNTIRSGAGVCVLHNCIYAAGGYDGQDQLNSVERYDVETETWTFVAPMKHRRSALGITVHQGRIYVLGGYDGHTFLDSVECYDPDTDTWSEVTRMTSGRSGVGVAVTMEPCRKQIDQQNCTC

formation of large species (DLS) (recombinant Keap1 BTB [1]): large molecular species forming | difference in viability IC50 over BDX (U2OS cells): threefold | IC50 (U2OS cells; Homo sapiens, 72 h): 254 nM | Keap1 puncta (immunofluorescence) (Keap1): bright punctate structures
Compound: CC1(C)CCC2(C(=O)NCCOCCOCCNC(=O)C34CCC(C)(C)CC3C3C(=O)C=C5C6(C)C=C(C#N)C(=O)C(C)(C)C6CCC5(C)C3(C)CC4)CCC3(C)C(C(=O)C=C4C5(C)C=C(C#N)C(=O)C(C)(C)C5CCC43C)C2C1 (centres unmarked) [EL133]
additional viability loss compared with BDX (Mino cells): no additional viability loss | additional viability loss compared with BDX (Ramos cells): no additional viability loss | duration of NQO1 upregulation after washout (NQO1 expression): remained higher | formation of large species with WT versus C151S Keap1 BTB (DLS) (recombinant Keap1 BTB [2]): able to form large species in solution with the wild-type (WT) protein but not with the mutant | higher-order assemblies after GA crosslinking (SDS–PAGE) (recombinant Keap1 BTB [3]): induced the formation of higher-order assemblies | Nrf2 levels (WB) (Nrf2): Nrf2 upregulation | formation of stress granules [4]: does not induce the formation of its characteristic stress granules

Source: publication PMC13503280, “A pharmacological modality to sequester homomeric proteins” (Nature Chemical Biology, 2026)
